Results as given in US11077090B2, “Compounds and compositions and uses thereof” (Sunovion Pharmaceuticals Inc., priority 2016, dated 2021).
Counter-ions that a name gives are not always drawn. Like-named read-outs stand apart in the source and are kept apart here.

Test system: compound-treated mice
Experiment: Neuropharmacological assay (SmartCube): behavioral activity signature and minimal effective dose
Format: in vivo
Conditions: for minimal effective dose: Mus musculus, ip, MED = dose having 50% or more total activity; for AD: ADHD (probability of activity signature) / AG: analgesic (probability of activity signature) / AX: anxiolytic (probability of activity signature) / CE: cognitive enhancer (probability of activity signature) / DP: anti-depressant (probability of activity signature) / MS: mood stabilizer (probability of activity signature) / PS: anti-psychotic (probability of activity signature) / SD: sedative hypnotic (probability of activity signature) / UN: uncharacterized CNS activity (probability of activity signature): i.p. 15 min before test, most efficacious dose(s)
Source text: Neurosci. 2011 Sep. 9; 5:103 (doi: 10.3389/fnins.2011.00103) (“Roberds”). As reported in Roberds, because psychiatric diseases generally result from disorders of cell-cell communication or circuitry, intact systems are useful in detecting improvement in disease-relevant endpoints. These endpoints are typically behavioral in nature, often requiring human observation and interpretation. To facilitate testing of multiple compounds for behavioral effects relevant to psychiatric disease, PsychoGenics, Inc. (Tarrytown, N.Y., “PGI”) developed SmartCube™, an automated system in which behaviors of compound-treated mice are captured by digital video and analyzed with computer algorithms. (D. Brunner et al., Drug Discov. Today 2002, 7:S107-S112). PGI Analytical Systems uses data from SmartCube™ to compare the behavioral signature of a test compound to a database of behavioral signatures obtained using a large set of diverse reference compounds. (The composition of the database as well as validation of the method is further described in Roberds). In this way, the neuropharmacological effects of a test compound can be predicted by similarity to major classes of compounds, such as antipsychotics, anxiolytics and antidepressants.
The SmartCube™ system produces an activity signature indicating the probability that the activity of the test compound at the administered dose matches a given class of neuropharmacological agents. (See, e.g., Roberds, FIGS. 2 and 3). The test compound is simultaneously compared against multiple classes of agents; thus, a separate probability is generated for each behavioral effect measured (e.g., anxiolytic activity, analgesic activity, etc.). In the table below, these probabilities are reported for each behavioral effect measured as follows:
where LOQ is the limit of quantification.
Provided compounds were dissolved in a mixture of Pharmasolve™ (N-methyl-2-pyrrolidone), polyethylene glycol and propylene glycol, and were injected i.p. 15 min. before the behavioral test. For each compound, injections were administered at 3 different doses. For each behavioral effect measured, results for the most efficacious dose(s) are presented. In the table below, DP: anti-depressant; AX: anxiolytic; SD: sedative hypnotic; PS: anti-psychotic; MS: mood stabilizer; AD: ADHD; CE: cognitive enhancer; AG: analgesic; UN: uncharacterized CNS activity.
The potency of many of the compounds in the table was also determined in the SmartCube™ system. Test compounds were routinely examined at dose levels of 0.3, 1, 3, 10 and 30 mg per kg (mpk), although the dose range was increased or decreased if necessary to obtain a full dose response curve. A compound's minimal effective dose (MED) is a measure of the compounds potency. The MED was defined as the dose (in mpk) having 50% or more total activity in SmartCube.

[1] = read-out: Potency: minimal effective dose (MED)
[2] = read-out: Potency: minimal effective dose (MED), binned

Compound	minimal effective dose [1] [mg/kg]	AD: ADHD (probability of activity signature)	AG: analgesic (probability of activity signature)	AX: anxiolytic (probability of activity signature)	CE: cognitive enhancer (probability of activity signature)	DP: anti-depressant (probability of activity signature)	MS: mood stabilizer (probability of activity signature)	PS: anti-psychotic (probability of activity signature)	SD: sedative hypnotic (probability of activity signature)	UN: uncharacterized CNS activity (probability of activity signature)	minimal effective dose [2] [mg/kg]	AX: anxiolytic (probability of activity signature) (hydrochloride)	DP: anti-depressant (probability of activity signature) (hydrochloride)	PS: anti-psychotic (probability of activity signature) (hydrochloride)	SD: sedative hypnotic (probability of activity signature) (hydrochloride)	UN: uncharacterized CNS activity (probability of activity signature) (hydrochloride)
C[C@@H]1OCc2ccccc2[C@@H]1N.Cl (relative stereo) [Example 72, cis-3-methylisochroman-4-amine hydrochloride]	3 to 10	+ (LOQ ≤ + <5%)	++ (5% ≤ ++ <25%)	++ (5% ≤ ++ <25%)	++ (5% ≤ ++ <25%)	++ (5% ≤ ++ <25%)	+ (LOQ ≤ + <5%)	++ (5% ≤ ++ <25%)	++ (5% ≤ ++ <25%)	+++ (25% ≤ +++ <50%)						
CC(C)[C@@H]1OCc2ccccc2[C@@H]1N (relative stereo) [Example 256, cis-3-Isopropylisochroman-4-amine hydrochloride]		++ (5% ≤ ++ <25%)	+ (LOQ ≤ + <5%)	++ (5% ≤ ++ <25%)	+ (LOQ ≤ + <5%)	+ (LOQ ≤ + <5%)	++ (5% ≤ ++ <25%)	+++ (25% ≤ +++ <50%)	++ (5% ≤ ++ <25%)	++ (5% ≤ ++ <25%)	3 to 10					
CC1(C)OCc2ccccc2C1N.Cl (stereo not shown) [Example 101, 3,3-Dimethylisochroman-4-amine hydrochloride]	10 to 30	+ (LOQ ≤ + <5%)	++ (5% ≤ ++ <25%)	+++ (25% ≤ +++ <50%)	+ (LOQ ≤ + <5%)	++ (5% ≤ ++ <25%)	+ (LOQ ≤ + <5%)	++ (5% ≤ ++ <25%)	++ (5% ≤ ++ <25%)	+ (LOQ ≤ + <5%)						
CNC1COCc2ccc(C)c(C)c21.Cl (stereo not shown) [Example 57, N,5,6-Trimethylisochroman-4-amine hydrochloride]	3 to 10	+ (LOQ ≤ + <5%)	++ (5% ≤ ++ <25%)	++ (5% ≤ ++ <25%)	+++ (25% ≤ +++ <50%)	++ (5% ≤ ++ <25%)	+ (LOQ ≤ + <5%)	++ (5% ≤ ++ <25%)	++ (5% ≤ ++ <25%)	+++ (25% ≤ +++ <50%)						
Cc1ccc2c(c1)CO[C@H](C)[C@@H]2N [Example 190]		+ (LOQ ≤ + <5%)	+ (LOQ ≤ + <5%)	++ (5% ≤ ++ <25%)	++ (5% ≤ ++ <25%)	+ (LOQ ≤ + <5%)	+ (LOQ ≤ + <5%)	++ (5% ≤ ++ <25%)	++ (5% ≤ ++ <25%)	++++ (50% ≤ ++++)	3 to 10					
Cl.NC1COCc2ccc3c(c21)C1CCC3C1 (stereo not shown) [Example 51, 2,4,7,8,9,10-Hexahydro-1H-7,10-methanobenzo[f]isochromen-1-amine hydrochloride]	3 to 10	+ (LOQ ≤ + <5%)	++ (5% ≤ ++ <25%)		++ (5% ≤ ++ <25%)		+ (LOQ ≤ + <5%)					++ (5% ≤ ++ <25%)	++ (5% ≤ ++ <25%)	++ (5% ≤ ++ <25%)	+ (LOQ ≤ + <5%)	++++ (50% ≤ ++++)
Cl.NC1COCc2c1ccc1ccccc21 (stereo not shown) [Example 50, 3,4-Dihydro-1H-benzo[h]isochromen-4-amine hydrochloride]	10 to 30	+ (LOQ ≤ + <5%)	++ (5% ≤ ++ <25%)	++ (5% ≤ ++ <25%)	++ (5% ≤ ++ <25%)	+++ (25% ≤ +++ <50%)	+ (LOQ ≤ + <5%)	++ (5% ≤ ++ <25%)	+ (LOQ ≤ + <5%)	++ (5% ≤ ++ <25%)						
CCC[C@@H]1OCc2ccccc2[C@@H]1N [Example 250]		++ (5% ≤ ++ <25%)	+ (LOQ ≤ + <5%)	++ (5% ≤ ++ <25%)	+ (LOQ ≤ + <5%)	+ (LOQ ≤ + <5%)	++ (5% ≤ ++ <25%)	++ (5% ≤ ++ <25%)	++ (5% ≤ ++ <25%)	+ (LOQ ≤ + <5%)	3 to 10					
CC1(N)COCc2ccc(F)cc21.Cl (stereo not shown) [Example 68, 6-Fluoro-4-methylisochroman-4-amine hydrochloride]	10 to 30	+ (LOQ ≤ + <5%)	++ (5% ≤ ++ <25%)	++ (5% ≤ ++ <25%)	++ (5% ≤ ++ <25%)	++ (5% ≤ ++ <25%)	+ (LOQ ≤ + <5%)	++ (5% ≤ ++ <25%)	+ (LOQ ≤ + <5%)	++ (5% ≤ ++ <25%)						
COc1cccc2c1[C@H](N)[C@H](C)OC2.Cl [Example 230]		+ (LOQ ≤ + <5%)	+ (LOQ ≤ + <5%)	++ (5% ≤ ++ <25%)	++ (5% ≤ ++ <25%)	+ (LOQ ≤ + <5%)	+ (LOQ ≤ + <5%)	++ (5% ≤ ++ <25%)	+ (LOQ ≤ + <5%)	++++ (50% ≤ ++++)	3 to 10					
